Data: US4616010A, “Imidazodiazepine derivatives” (Hoffmann-La Roche Inc., priority 1985, dated 1986)

Tests used:
[1] = acute toxicity, single oral administration to mice; conditions: mouse, in vivo
From the text: The results obtained with representative members of the class of compounds defined by formula I in the experiments described previously are compiled in the following Table. Moreover, the Table contains data concerning the acute toxicity of some of these compounds (LD50 in mg/kg in the case of single oral administration to mice).

[2] = target: central benzodiazepine receptors; test: inhibition of the binding of tritiated diazepam at the specific benzodiazepine receptors in the cerebral cortex
From the text: The affinity of compounds of formula I to the central benzodiazepine receptors has been determined according to the method described in Life Science 20, 2101-2110 (1977) and Science 198, 849-851 (1977). According to this method, the inhibition of the binding of tritiated diazepam at the specific benzodiazepine receptors in the cerebral cortex by the respective test substances is ascertained. The IC50 ("50% inhibiting concentration") is that concentration of the respective test substance which brings about a 50 percent inhibition of the specific binding of the tritiated diazepam at the specific benzodiazepine receptors in the cerebral cortex.

[3] = test system: spasmodic seizures caused by pentetrazole; test: antipentetrazole test (anticonvulsant activity); type: in vivo; conditions: Rattus norvegicus, po; female rats 60-80 g; compound orally 30 min before pentetrazole 120 mg/kg i.p.; dose protecting 50%, Probit method
Method: The central properties of the compounds of formula I in accordance with the invention can be determined, for example, in the antipentetrazole test described hereinafter, which is generally recognized for recording anticonvulsant properties.
In this animal experiment, the compound under investigation is administered orally to female rats weighing 60-80 g and 30 minutes later there are administered i.p. 120 mg/kg of pentetrazole, which causes emprosthotonus and tonic stretchings of the fore and/or hind limbs in unprotected experimental animals 1-4 minutes after the injection. Ten experimental animals are used per dosage of test substance. After counting the protected experimental animals, the ED50 is determined according to the Probit method. The ED50 is that dosage which protects 50% of the experimental animals from the spasmodic seizures caused by pentetrazole.

| Compound | LD50 [1] [mg/kg] | IC50 [2] [nM] | ED50 [3] [mg/kg] |
| --- | --- | --- | --- |
| O=C1c2c(Cl)cccc2-n2cnc(-c3cccc(Cl)c3)c2[C@@H]2CCCN12 [A] | 2500 to 5000 | 4.2 | 2.1 |
| O=C1c2c(Cl)cccc2-n2cnc(-c3cccc(C(F)(F)F)c3)c2[C@@H]2CCCN12 [B, (S)-8-chloro-11,12,13,13a-tetrahydro-1-(α,α,α-trifluoro-m-tolyl)-9H-imidazo[1,5-a]pyrrolo[2,1-c][1,4]benzodiazepin-9-one] | 2500 to 5000 | 40 | 4 |
